Target: T1, Human HPK1, catalytic domain (Homo sapiens, UniProt Q92918)
T1 sequence (Q92918 1-346): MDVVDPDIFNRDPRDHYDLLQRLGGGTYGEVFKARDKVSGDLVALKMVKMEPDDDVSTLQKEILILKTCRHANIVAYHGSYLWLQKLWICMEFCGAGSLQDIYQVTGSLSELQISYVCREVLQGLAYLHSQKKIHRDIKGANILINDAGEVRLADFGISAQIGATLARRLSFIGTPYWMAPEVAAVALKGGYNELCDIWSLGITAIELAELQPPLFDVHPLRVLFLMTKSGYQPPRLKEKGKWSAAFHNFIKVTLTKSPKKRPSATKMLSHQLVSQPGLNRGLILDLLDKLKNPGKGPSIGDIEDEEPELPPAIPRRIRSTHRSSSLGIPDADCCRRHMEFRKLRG
Assay: HPK1-SLP76 TR-FRET Assay
Format: biochemical
Conditions: 75 pM HPK1, ATP 10 uM, SLP76 10 nM, 30 min pre-incubation, 60 min reaction

Row | Structure (SMILES) | IC50 [nM]
1 | COc1cc2c(cc1Nc1ncc3ccc(N4CCCC(CN5CCCC5=O)C4)cc3n1)CN(C)CC2 (racemic) [Compound 3-20, (S and R)-1-1(1-12-[(6-methoxy-2-methyl-1,2,3,4-tetrahydroiso-quinolin-7-yl)amino]quinazolin-7-yl}piperidin-3-yl)methyl]-pyrrolidin-2-one] | 771
2 | COc1cc2c(cc1Nc1ncc3ccc(-c4ccc(C#N)cc4C)cc3n1)CNCC2 [Compound 1-33, 4-{2-[(6-methoxy-1,2,3,4-tetrahydroisoquinolin-7-yl)amino]quinazolin-7-yl}-3-methylbenzonitrile] | 136
3 | COc1cc2c(cc1Nc1ncc3ccc(-c4ccc(NC(C)=O)nc4)cc3n1)CNCC2 [Compound 1-30, N-(5-{2-[(6-methoxy-1,2,3,4-tetahydroisoquinolin-7-yl)amino]quinazolin-7-yl}pyridin-2-yl)acetamide] | 45.5
4 | Cc1ccncc1-c1cc2nc(Nc3ccc(CS(C)(=O)=O)cc3)ncc2c(N)c1F [Compound 2-44, 6-fluoro-7-(4-methylpyridin-3-yl)-N~2~- {4-[(methylsulfonyl)methyl]phenyl}quinazoline-2,5-diamine] | 0.194
5 | COc1cc2c(cc1Nc1ncc3c(N)c(F)c(-c4cnc5c(c4C)NCCO5)cc3n1)C(C)N(C)C(C)C2 (racemic) [Compound 2-48, (R,R and S,S)-6-fluoro-N~2~-(6-methoxy-1,2,3-trimethyl-1,2,3,4-tetrahydroisoquinolin-7-yl)-7-(8-methyl-2,3-dihydro-1H-pyrido[2,3-b][1,4]oxazin-7-yl)quinazoline-2,5-diamine] | 0.696
6 | CNC(=O)C1(c2ccc(Nc3ncc4cc(F)c(-c5cnc6c(c5C)NCCO6)cc4n3)cc2)CCCC1 [Compound 1-120, 1-(4-{[6-fluoro-7-(8-methyl-2,3-dihydro-1H-pyrido[2,3-b][1,4]oxazin-7-yl)quinazolin-2-yl]amino}phenyl)-N-methylcyclopentane-1-carboxamide] | 0.595
7 | COc1cc2c(cc1Nc1ncc3c(N)c(F)c(-c4cnc5c(c4C)NCCO5)cc3n1)CCN(C)C2 [Compound 2-88, 6-fluoro-N2-(7-methoxy-2-methyl-1,2,3,4-tetrahydroisoquinolin-6-yl)-7-(8-methyl-2,3-dihydro-1H-pyrido[2,3-b][1,4]oxazin-7-yl)quinazoline-2,5-diamine] | 0.377
8 | COc1cc2c(cc1Nc1ncc3c(N)c(F)c(-c4cncc(N)c4C)cc3n1)CN(C)CC2 [Compound 2-1, 7-(5-amino-4-methylpyridin-3-yl)-6-fluoro-N~2~-(6-methoxy-2-methyl-1,2,3,4-tetrahydroisoquinolin-7-yl)quinazoline-2,5-diamine] | 0.249
9 | COc1cc2c(cc1Nc1ncc3c(N)c(F)c(-c4cc(C#N)ccc4C)cc3n1)CN(C)CC2 [Compound 2-51, 3-(5-amino-6-fluoro-2-((6-methoxy-2-methyl-1,2,3,4-tetrahydroisoquinolin-7-yl)amino)quinazolin-7-yl)-4-methylbenzonitrile] | 474
10 | COc1cc2c(cc1Nc1ncc3ccc(-c4cnn(C)c4)cc3n1)CNCC2 [Compound 1-34, N-(6-methoxy-1,2,3,4-tetrahydroisoquinolin-7-yl)-7-(1-methyl-1H-pyrazol-4-yl)quinazolin-2-amine] | 1.49
11 | COc1cc2c(cc1Nc1ncc3ccc(-c4ccc(-n5cccn5)nc4)cc3n1)CN(C)CC2 [Compound 1-107, N-(6-methoxy-2-methyl-1,2,3,4-tetrahydroisoquinolin-7-yl)-7-[6-(1H-pyrazol-1-yl)pyridin-3-yl]quinazolin-2-amine] | 488
12 | COc1cc2c(cc1Nc1ncc3ccc(-c4cccc(N)c4C)cc3n1)CNCC2 [Compound 1-31, 7-(3-amino-2-methylphenyl)-N-(6-methoxy-1,2,3,4-tetrahydroisoquinolin-7-yl)quinazolin-2-amine] | 204
13 | Cc1c(-c2cc3nc(Nc4cc5c(cc4Cl)CCN(C)C5)ncc3c(N)c2F)cnc2c1NCCO2 [Compound 2-64, N~2~-(6-chloro-2-methyl-1,2,3,4-tetrahydroisoquinolin-7-yl)-6-fluoro-7-(8-methyl-2,3-dihydro-1H-pyrido[2,3-b][1,4]oxazin-7-yl)quinazoline-2,5-diamine] | 0.782
14 | Cc1c(-c2cc3nc(Nc4cccnc4)ncc3c(N)c2F)cnc2c1NCCO2 [Compound 2-9, 6-fluoro-7-(8-methyl-2,3-dihydro-1H-pyrido[2,3-b][1,4]oxazin-7-yl)-N~2~- (pyridin-3-yl)quinazoline-2,5-diamine] | 0.129
15 | Cc1c(-c2c(F)c(N)c3cnc(Nc4ccc5c(c4)CN(C)CC5)nc3c2Cl)cnc2c1NCCO2 (single isomer, unassigned) [Compound 2-179, (+ or −)-8-chloro-6-fluoro-7-(8-methyl-2,3-dihydro-1H-pyrido[2,3-b][1,4]oxazin-7-yl)-N~2~- (2-methyl-1,2,3,4-tetrahydroisoquinolin-7-yl)quinazoline-2,5-diamine] | 2.93
16 | COc1cc2c(cc1Nc1ncc3ccc(NCC4=NS(=O)(=O)c5cc(C)ccc5N4)cc3n1)CN(C)CC2 [Compound 3-18, 3-[({2-[(6-methoxy-2-methyl-1,2,3,4-tetrahydroisoquinolin-7-yl)amino]quinazolin-7-yl}-amino)methyl]-7-methyl-1lambda~6~,2,4-benzothia-diazine-1,1(4H)-dione] | 204
17 | COc1cc2c(cc1Nc1ncc3ccc(-c4cncc(NS(C)(=O)=O)c4)cc3n1)CNCC2 [Compound 1-37, N-(5-{2-[(6-methoxy-1,2,3,4-tetrahydroisoquinolin-7-yl)amino]quinazolin-7-yl}pyridin-3-yl)methanesulfonamide] | 27.9
18 | COc1cc2c(cc1Nc1ncc3ccc(N[C@H]4CCC[C@@H]4O)cc3n1)CN(C)CC2 [Compound 3-58, (1S,2S)-2-({2-[(6-methoxy-2-methyl-1,2,3,4-tetrahydroiso-quinolin-7-yl)amino]quinazolin-7-yl}amino)cyclopentan-1-ol] | 180
19 | COc1cc2c(cc1Nc1ncc3ccc(-c4cccc5c4CNCC5)cc3n1)CN(C)CC2 [Compound 1-9, N-(6-methoxy-2-methyl-1,2,3,4-tetrahydroisoquinolin-7-yl)-7-(1,2,3,4-tetrahydroisoquinolin-8-yl)quinazolin-2-amine] | 42.9
20 | COc1cc2c(cc1Nc1ncc3ccc(Nc4cccc(S(C)(=O)=O)c4)cc3n1)CN(C)CC2 [Compound 3-33, N~2~-(6-methoxy-2-methyl-1,2,3,4-tetrahydroisoquinolin-7-yl)-N~7~-[3-(methylsulfon-yl)phenyl]quinazoline-2,7-diamine] | 18.4
21 | Cc1c(-c2cc3nc(Nc4cccc(S(=O)(=O)NC(C)(C)C)c4)ncc3c(N)c2F)cnc2c1NCCO2 [Compound 2-33, 3-{[5-amino-6-fluoro-7-(8-methyl-2,3-dihydro-1H-pyrido[2,3-b][1,4]oxazin-7-yl)quinazolin-2-yl]amino}-N-tert-butylbenzene-1-sulfonamide] | 0.186
22 | COc1cc2c(cc1Nc1ncc3c(N)cc(-c4cnccc4C)cc3n1)CNCC2 [Compound 2-37, N^2-(6-methoxy-1,2,3,4-tetrahydroisoquinolin-7-yl)-7-(4-methylpyridin-3-yl)quinazoline-2,5-diamine] | 0.372
23 | COc1cc(C2CCN(C)C2=O)ccc1Nc1ncc2c(N)c(F)c(-c3cnc4c(c3C)NCCO4)cc2n1 (single isomer, unassigned) [Compound 2-54, (R or S)-3-(4-{[5-amino-6-fluoro-7-(8-methyl-2,3-dihydro-1H-pyrido[2,3-b][1,4]oxazin-7-yl)quinazolin-2-yl]amino}-3-methoxyphenyl)-1-methylpyrrolidin-2-one] | 0.0784
24 | Cc1c(-c2cc3nc(Nc4ccc(CS(C)(=O)=O)cc4F)ncc3c(N)c2F)cnc2c1NCCO2 [Compound 2-155, 6-fluoro-N~2~-{2-fluoro-4-[(methylsulfonyl)methyl]phenyl}-7-(8-methyl-2,3-dihydro-1H-pyrido[2,3-b][1,4]oxazin-7-yl)quinazoline-2,5-diamine] | 0.0647
25 | Cc1c(-c2c(F)c(N)c3cnc(Nc4ccc5c(c4)CN(C)CC5)nc3c2Cl)cnc2c1NCCO2 [Compound 2-95, (+ or −)-8-chloro-6-fluoro-7-(8-methyl-2,3-dihydro-1H-pyrido[2,3-b][1,4]oxazin-7-yl)-N~2~- (2-methyl-1,2,3,4-tetrahydroisoquinolin-7-yl)quinazoline-2,5-diamine] | 0.0589
26 | COc1cc2c(cc1Nc1ncc3c(N)c(F)c(-c4cnc5c(c4C)NCCO5)cc3n1)C(C)N(C)CC2 (single isomer, unassigned) [Compound 2-35, (S or R)-6-fluoro-N^2-(6-methoxy-1,2-dimethyl-1,2,3,4-tetrahydroisoquinolin-7-yl)-7-(8-methyl-2,3-dihydro-1H-pyrido[2,3-b][14]oxazin-7-yl)quinazoline-2,5-diamine] | 0.152
27 | Cc1ccc(C#N)cc1-c1cc2nc(Nc3ccc(S(C)(=O)=O)cc3)ncc2c(N)c1F [Compound 2-52, 3-(5-amino-6-fluoro-2-{[4-(methylsulfonyl)phenyl]amino}quinazolin-7-yl)-4-methylbenzonitrile] | 424
28 | COc1cc2c(cc1Nc1ncc3ccc(N4CC5(CCCNCC5)OC4=O)cc3n1)CN(C)CC2 (racemic) [Compound 3-8, (S and R)-3-{2-[(6-methoxy-2-methyl-1,2,3,4-tetrahydroiso-quinolin-7-yl)amino]quinazolin-7-yl}-1-oxa-3,8-diazaspiro[4.6]-undecan-2-one] | 92.6
29 | Cc1c(-c2cc3nc(Nc4ccccc4)ncc3c(N)c2F)cnc2c1NCCO2 [Compound 2-25, 6-fluoro-7-(8-methyl-2,3-dihydro-1H-pyrido[2,3-b][1,4]oxazin-7-yl)-N~2~- phenylquinazoline-2,5-diamine] | 0.275
